# What was measured:
# [1] = tested on: Serratia marcescens 042; assay: β-galactosidase detection in semi-solid Columbia medium (Example 1); assay type: cell-based
# [2] = tested on: Proteus vulgaris; assay: β-galactosidase detection on semi-solid medium, clinical and environmental strains (Example 2); assay type: cell-based; settings: 50 mg/l + iron citrate 500 mg/l; 18 hours; 4 strains tested
compound,measurement,setting,value
O=C1c2ccccc2C(=O)c2c1ccc(O[C@@H]1O[C@H](CO)[C@H](O)[C@H](O)[C@H]1O)c2O [Alizarin-2-β-D-galactoside],Color,"[1]; 0.01 g/l + iron citrate, 48 H",purple
same,Intensity,"[1]; 0.01 g/l + iron citrate, 48 H",0.3
same,Color,"[1]; 0.03 g/l + iron citrate, 18 H",purple
same,Intensity,"[1]; 0.03 g/l + iron citrate, 18 H",0.5
same,Color,"[1]; 0.03 g/l + iron citrate, 24 H",purple
same,Intensity,"[1]; 0.03 g/l + iron citrate, 24 H",1
same,Color,"[1]; 0.03 g/l + iron citrate, 48 H",purple
same,Intensity,"[1]; 0.03 g/l + iron citrate, 48 H",1.7
same,Color,"[1]; 0.05 g/l + iron citrate, 18 H",purple
same,Intensity,"[1]; 0.05 g/l + iron citrate, 18 H",1
same,Color,"[1]; 0.05 g/l + iron citrate, 24 H",purple
same,Intensity,"[1]; 0.05 g/l + iron citrate, 24 H",2.5
same,Color,"[1]; 0.05 g/l + iron citrate, 48 H",purple
same,Intensity,"[1]; 0.05 g/l + iron citrate, 48 H",3
same,Color,"[1]; 0.08 g/l + iron citrate, 18 H",purple
same,Intensity,"[1]; 0.08 g/l + iron citrate, 18 H",2
same,Color,"[1]; 0.08 g/l + iron citrate, 24 H",purple
same,Intensity,"[1]; 0.08 g/l + iron citrate, 24 H",2.5
same,Color,"[1]; 0.08 g/l + iron citrate, 48 H",purple
same,Intensity,"[1]; 0.08 g/l + iron citrate, 48 H",3.5
same,percentage of positive strains,[2],0%
